We go through 21 molecules from US11878975B2, “Substituted indole compounds useful as TLR inhibitors” (BRISTOL-MYERS SQUIBB COMPANY, priority 2017, dated 2024).

Molecules are shown by their SMILES. Some results are limits rather than exact numbers.

Holding throughout (type): cell-based
For one assay, the target named is T1, human TLR7 (Homo sapiens, UniProt Q9NYK1).
T1 construct: host or cells: HEK-Blue cells
T1 sequence (Q9NYK1 27-1049): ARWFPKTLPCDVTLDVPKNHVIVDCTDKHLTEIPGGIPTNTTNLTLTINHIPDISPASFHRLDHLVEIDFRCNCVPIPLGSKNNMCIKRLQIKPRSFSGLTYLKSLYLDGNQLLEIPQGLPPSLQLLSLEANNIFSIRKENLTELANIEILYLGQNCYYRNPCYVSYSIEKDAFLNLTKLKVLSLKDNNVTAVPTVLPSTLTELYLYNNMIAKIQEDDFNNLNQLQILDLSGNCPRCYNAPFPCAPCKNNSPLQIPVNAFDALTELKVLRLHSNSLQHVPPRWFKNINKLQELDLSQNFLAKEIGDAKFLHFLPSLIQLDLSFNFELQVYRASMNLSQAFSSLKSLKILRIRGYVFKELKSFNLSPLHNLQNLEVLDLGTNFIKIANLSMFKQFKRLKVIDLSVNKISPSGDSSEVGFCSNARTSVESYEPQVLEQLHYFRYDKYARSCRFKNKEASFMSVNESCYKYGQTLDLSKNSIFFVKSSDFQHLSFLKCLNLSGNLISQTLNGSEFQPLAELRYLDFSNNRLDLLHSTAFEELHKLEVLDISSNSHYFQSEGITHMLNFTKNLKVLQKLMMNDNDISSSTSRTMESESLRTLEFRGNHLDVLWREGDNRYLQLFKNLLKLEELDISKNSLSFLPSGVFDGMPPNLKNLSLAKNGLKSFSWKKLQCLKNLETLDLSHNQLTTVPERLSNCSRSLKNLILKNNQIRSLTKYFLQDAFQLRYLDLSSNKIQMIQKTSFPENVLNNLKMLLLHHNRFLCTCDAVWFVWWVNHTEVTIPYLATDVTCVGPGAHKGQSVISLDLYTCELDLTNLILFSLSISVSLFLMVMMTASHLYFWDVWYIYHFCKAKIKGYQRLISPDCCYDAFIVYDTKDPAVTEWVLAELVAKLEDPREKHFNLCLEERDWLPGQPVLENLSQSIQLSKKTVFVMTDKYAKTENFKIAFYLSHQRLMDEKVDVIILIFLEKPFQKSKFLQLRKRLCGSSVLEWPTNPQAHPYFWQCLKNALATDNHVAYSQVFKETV
Nature of the assay: TLR7 inhibition reporter assay (HEK-Blue cells, SEAP reporter, gardiquimod stimulation). As to conditions: HEK-Blue cells overexpressing human TLR7, SEAP reporter, gardiquimod 7.5 μM. In outline:
(§1)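 Ligand levels: TLR7 gardiquimod 7.5 μM, TLR8 R848 15.9 μM, TLR9 ODN2006 5 nM, added after 30 min room-temperature compound pre-incubation at 0.05 nM-50 μM. Reporter SEAP read with HEK-Blue Detection reagent after 22 h, 37° C. Inhibition expressed as % reduction relative to agonist-plus-DMSO and known-inhibitor controls.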
Background: In a reporter assay the amount or activity of a reporter protein is the signal.

The next assay addresses T2, human TLR8 (Homo sapiens, UniProt Q9NR97).
T2 construct: host or cells: HEK-Blue cells
T2 sequence (Q9NR97 27-1041): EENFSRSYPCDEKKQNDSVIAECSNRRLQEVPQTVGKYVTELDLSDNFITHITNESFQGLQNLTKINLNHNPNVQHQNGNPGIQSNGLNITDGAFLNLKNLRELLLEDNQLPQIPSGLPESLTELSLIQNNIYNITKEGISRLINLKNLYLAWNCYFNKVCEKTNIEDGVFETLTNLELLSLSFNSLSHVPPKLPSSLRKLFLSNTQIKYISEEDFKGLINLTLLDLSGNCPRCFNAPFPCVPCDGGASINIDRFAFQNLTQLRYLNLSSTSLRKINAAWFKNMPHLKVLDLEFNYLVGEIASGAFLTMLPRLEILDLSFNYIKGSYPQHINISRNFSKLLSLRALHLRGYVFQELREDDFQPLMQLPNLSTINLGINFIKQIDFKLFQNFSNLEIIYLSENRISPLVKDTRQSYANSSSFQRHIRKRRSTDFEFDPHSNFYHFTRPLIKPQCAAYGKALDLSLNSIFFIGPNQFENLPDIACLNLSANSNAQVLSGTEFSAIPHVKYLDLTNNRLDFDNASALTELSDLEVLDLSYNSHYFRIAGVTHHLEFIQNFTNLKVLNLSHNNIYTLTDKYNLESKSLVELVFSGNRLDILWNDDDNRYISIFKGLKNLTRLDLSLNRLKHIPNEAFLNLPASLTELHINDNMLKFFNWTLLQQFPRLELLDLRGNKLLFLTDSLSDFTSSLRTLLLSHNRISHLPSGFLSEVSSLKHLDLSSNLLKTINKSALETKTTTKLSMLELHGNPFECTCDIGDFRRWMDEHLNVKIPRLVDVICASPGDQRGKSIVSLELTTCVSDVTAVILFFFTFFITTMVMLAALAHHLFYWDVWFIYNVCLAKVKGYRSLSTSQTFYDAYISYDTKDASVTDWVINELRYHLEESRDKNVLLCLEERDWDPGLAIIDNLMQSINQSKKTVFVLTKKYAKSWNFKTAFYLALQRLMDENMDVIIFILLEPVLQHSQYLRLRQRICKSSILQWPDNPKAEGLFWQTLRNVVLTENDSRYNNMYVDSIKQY
Nature of the assay: TLR8 inhibition reporter assay (HEK-Blue cells, SEAP reporter, R848 stimulation). Conditions: HEK-Blue cells overexpressing human TLR8, SEAP reporter, R848 15.9 μM. In outline: as §1

Another assay addresses T3, human TLR9 (Homo sapiens, UniProt Q9NR96).
T3 construct: host or cells: HEK-Blue cells
T3 sequence (Q9NR96 26-1032): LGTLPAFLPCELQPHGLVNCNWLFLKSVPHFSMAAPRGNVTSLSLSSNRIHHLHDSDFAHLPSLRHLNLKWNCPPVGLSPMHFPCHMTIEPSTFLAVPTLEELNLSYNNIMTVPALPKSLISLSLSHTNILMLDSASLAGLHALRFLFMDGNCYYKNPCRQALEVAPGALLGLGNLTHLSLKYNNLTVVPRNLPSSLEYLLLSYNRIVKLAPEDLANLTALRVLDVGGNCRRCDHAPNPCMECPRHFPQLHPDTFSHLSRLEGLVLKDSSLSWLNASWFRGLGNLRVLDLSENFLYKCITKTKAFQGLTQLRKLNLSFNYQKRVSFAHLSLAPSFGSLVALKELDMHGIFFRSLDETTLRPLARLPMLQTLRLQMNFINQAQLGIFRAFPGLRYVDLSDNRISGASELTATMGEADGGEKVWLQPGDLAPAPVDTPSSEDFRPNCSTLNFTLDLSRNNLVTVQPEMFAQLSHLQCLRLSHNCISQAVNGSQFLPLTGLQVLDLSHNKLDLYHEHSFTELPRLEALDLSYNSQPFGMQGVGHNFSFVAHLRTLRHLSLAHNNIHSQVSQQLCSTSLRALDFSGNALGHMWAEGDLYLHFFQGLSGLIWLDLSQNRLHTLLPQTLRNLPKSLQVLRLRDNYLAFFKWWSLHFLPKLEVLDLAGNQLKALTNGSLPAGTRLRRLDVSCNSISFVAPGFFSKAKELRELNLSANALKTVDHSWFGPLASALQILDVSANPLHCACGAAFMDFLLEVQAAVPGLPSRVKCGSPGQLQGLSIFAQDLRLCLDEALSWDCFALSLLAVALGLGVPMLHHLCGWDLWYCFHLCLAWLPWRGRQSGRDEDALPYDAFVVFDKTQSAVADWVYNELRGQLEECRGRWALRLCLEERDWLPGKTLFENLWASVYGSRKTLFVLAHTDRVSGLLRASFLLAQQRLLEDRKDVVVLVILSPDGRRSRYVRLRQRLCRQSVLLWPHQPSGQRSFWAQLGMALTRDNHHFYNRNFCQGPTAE
The experiment in a line: TLR9 inhibition reporter assay (HEK-Blue cells, SEAP reporter, ODN2006 stimulation). Conditions: HEK-Blue cells overexpressing human TLR9, SEAP reporter, ODN2006 5 nM. In outline: as §1

Regarding `COc1cc(-c2[nH]c3ccc(CCC4CN(CC(C)(C)O)C4)cc3c2C(C)C)cn2ncnc12` [Example 441], the IC50 was 2 nM against human TLR7, 3.8 nM at human TLR8 and 2570 nM against human TLR9.

For `CCc1c(-c2ccnc(C)c2)[nH]c2ccc(CNC(=O)CCC3CCNCC3)cc12` [Example 444], the IC50 at human TLR7 came to 3060 nM; on human TLR8 it was 9240 nM; at human TLR9 it was 4960 nM.

`Cc1cc(-c2[nH]c3ccc(C4CCCN(C(=O)C5(C)CC5)C4)cc3c2C(C)C)cc(C)n1` (stereo not drawn) [Example 202]: the IC50 worked out at 4 nM on human TLR7, 35 nM against human TLR8 and 12200 nM on human TLR9.

On to `COc1cc(-c2[nH]c3ccc(C4CCC(N5CCCC(F)(F)C5)CC4)cc3c2C(C)C)cn2ncnc12` (stereo not drawn) [Example 34], for which the IC50 at human TLR7 was determined as 5 nM; at human TLR8 it was 23 nM; against human TLR9 it was 20500 nM.

Turning to `COc1cc(-c2[nH]c3ccc(CC4CN(C(C)C)C4)cc3c2C(C)C)cn2ncnc12` [Example 433], the figures for the IC50 on human TLR7, on human TLR8 and at human TLR9 were 2 nM, 3 nM and 2190 nM, respectively.

As for `COc1cc(-c2[nH]c3ccc(CCN4CCOCC4)cc3c2C(C)C)cn2ncnc12` [Example 411], the figures for the IC50 on human TLR7, at human TLR8 and at human TLR9 were 7 nM, 7.9 nM and 8960 nM, respectively.

Turning to `Cc1cc(-c2[nH]c3ccc(C4CN(C5COC5)C4)cc3c2C(C)C)cn2ncnc12` [Example 271], the IC50 was determined as 5 nM on human TLR7, 22 nM on human TLR8 and 29100 nM on human TLR9.

Consider `CNC1CCC(c2ccc3[nH]c(-c4cc(C)c5ncnn5c4)c(C(C)C)c3c2)CC1` (single isomer, unassigned) [Example 56], for which the IC50 against human TLR7 worked out at 0.17 nM; against human TLR8, 0.81 nM; against human TLR9 it was 1370 nM.

Regarding `Cc1cc(-c2[nH]c3ccc(CCN4CC[C@@H](F)C4)cc3c2C(C)C)cn(C)c1=O` [Example 410], the IC50 against human TLR7 amounted to 13 nM; against human TLR8, 0.72 nM; at human TLR9, 15600 nM.

`Cc1c(-c2[nH]c3ccc(CC4CN(CC(=O)N(C)C)C4)cc3c2C(C)C)cn2ncnc2c1C` [Example 400]: the IC50 against human TLR7 turned out to be 18 nM; at human TLR8, 5.1 nM; on human TLR9, 2820 nM.

With `Cc1c(-c2[nH]c3ccc(C4CNCCO4)cc3c2C(C)C)cn2ncnc2c1C` (stereo not drawn) [Example 287], the IC50 against human TLR7 was determined as 0.7 nM; against human TLR8 it was 0.62 nM; on human TLR9, 2550 nM.

Regarding `COc1cc(-c2[nH]c3ccc(C4CC(N(C)CCS(C)(=O)=O)C4)cc3c2C(C)C)cn2ncnc12` (stereo not drawn) [Example 587], the IC50 against human TLR7 was found to be 5 nM; against human TLR8, 5.7 nM; against human TLR9, 21300 nM.

For `COc1cc(-c2[nH]c3ccc(C4CCC(NC(C)=O)CC4)cc3c2C(C)C)cn2ncnc12` (single isomer, unassigned) [Example 116, N-(4-(3-isopropyl-2-(8-methoxy-[1,2,4]triazolo[1,5-a]pyridin-6-yl)-1H-indol-5-yl)cyclohexyl)acetamide], the values for the IC50 against human TLR7, against human TLR8 and on human TLR9 were 9 nM, 61 nM and more than 50000 nM, respectively.

As for `Cc1cc(-c2[nH]c3ccc(C4CCCN(C(=O)C5(C)COC5)C4)cc3c2C(C)C)cc(C)n1` (stereo not drawn) [Example 204], the IC50 was 4 nM at human TLR7, 55 nM on human TLR8 and more than 50000 nM at human TLR9.

Regarding `Cc1cc(-c2[nH]c3ccc(C4CN(CC(C)(C)O)C(C)(C)CO4)cc3c2C(C)C)cn2ncnc12` (stereo not drawn) [Example 385], the IC50 against human TLR7 worked out at 14 nM; against human TLR8, 48 nM; at human TLR9 it was 20400 nM.

As to `Cc1cc(-c2[nH]c3ccc(C4CCC(N5CCC(F)(F)CC5)CC4)cc3c2C(C)C)cn(C)c1=O` (stereo not drawn) [Example 465], the results for the IC50 against human TLR7, against human TLR8 and against human TLR9 were 3 nM, 3.3 nM and more than 50000 nM, respectively.

Take `Cc1c(-c2[nH]c3ccc(C4CN(CC(=O)N(C)C)CCO4)cc3c2C(C)C)cn2ncnc2c1C` (stereo not drawn) [Example 321]: the IC50 against human TLR7 was 15 nM; against human TLR8, 25 nM; on human TLR9, more than 50000 nM.

For `Cc1c(-c2[nH]c3ccc(C4CN(C(=O)CN(C)C)CCO4)cc3c2C(C)C)cn2ncnc2c1C` (stereo not drawn) [Example 330], the IC50 against human TLR7 stood at 1 nM; at human TLR8, 3.4 nM; against human TLR9, 3330 nM.

Regarding `Cc1cc(-c2[nH]c3ccc(C4CN5CCC4CC5)cc3c2C(C)C)cn2ncnc12` (stereo not drawn) [Example 365], the values for the IC50 against human TLR7, against human TLR8 and on human TLR9 were 0.22 nM, 1.6 nM and 745 nM, respectively.

Consider `COc1cc(-c2[nH]c3ccc(C4CN(C)C4)cc3c2C(C)C)cn2ncnc12` [Example 273], for which the IC50 against human TLR7 amounted to 28 nM; against human TLR8, 97 nM; against human TLR9, 5250 nM.

As to `COc1cc(-c2[nH]c3ccc(C4CCC(N(C)CCC(F)(F)F)CC4)cc3c2C(C)C)cn2ncnc12` (stereo not drawn) [Example 82], the values for the IC50 at human TLR7, against human TLR8 and on human TLR9 were 7 nM, 23 nM and 5770 nM, respectively.

One may read the IC50 as the concentration that gives 50% inhibition.
